From patent US20250304600A1, “PHARMACEUTICAL COMPOUNDS AND COMPOSITIONS AS c-KIT KINASE INHIBITORS” (Enanta Pharmaceuticals, Inc., priority 2023, published 2025) come the findings set out here.

The structures appear in SMILES notation. pEC50, pIC50: −log10 of the molar value.

Broadly, the pIC50 is the IC50 on a negative log10 scale, so that one unit is a factor of ten. By pEC50 is commonly meant the negative decadic logarithm of the EC50, by convention in mol/L. A higher pEC50 goes with a low EC50.

Assay [1] has as its target T1, Recombinant human c-KIT kinase (Homo sapiens, UniProt P10721).
T1 construct: purchased Promega V4498
Briefly: c-KIT kinase chemiluminescence assay (ADP-Glo). Format: biochemical. The following applies: ATP 50 μM. The procedure:
The c-KIT Kinase Enzyme System (V4498) and ADP-Glo™ Kinase Assay kit (V6930) were purchased from Promega (Madison, WI). DMSO (D2650) was purchased from Sigma-Aldrich (Burlington, MA).
c-KIT Kinase Chemiluminescence Assay:
Kinase Reaction: The kinase assay was based on the recommended protocol by c-KIT Kinase Enzyme System from Promega. Recombinant human c-KIT kinase in 3 μL of assay buffer (40 mM Tris pH 7.5, 20 mM MgCl2, 0.1 mg/mL BSA and 50 μM DTT) was added to the test or high control wells and 3 μL of assay buffer was added to the low control wells. The microplate was centrifuged at 800 rotations per minute (rpm) for 60 s and incubated at room temperature (RT) for 30 min. Next, 2 μL of buffered ATP and polyEY substrate solution was added to all wells. The microplate was centrifuged at 800 rpm for 60 s and incubated at RT for 2 h.
ADP detection with ADP-Glo™ Kinase Assay: After the kinase reaction incubation, 5 μL of ADP-Glo™ reagent was added to all wells. The microplate was centrifuged at 800 rpm for 60 s and incubated at RT for 40 min. Ten microliter (10 μL) of Kinase Detection Reagent (Luciferin-Luciferase system) was then added to all wells. The microplate was centrifuged at 800 rpm for 60 s and incubated at RT for 60 min. Kinase activity was measured as an increase in luminescence at RT in an Envision plate reader equipped with 560 nm filters and operating in endpoint mode.
Data Analysis: Endpoint chemiluminescence from high and low control wells were used to calculate normalized c-KIT activity at various concentrations of test compounds. The normalized activities were fitted to inhibitor-versus-normalized response fit in GraphPad Prism 7 to determine half-maximal inhibitory concentration (IC50) and hill coefficient values (H).
Where I is the inhibitor concentration and H is the Hill coefficient.
On the technique in general: In ADP-Glo the light output rises with the ADP produced.

The subject of assay [2] is M-07e cells which endogenously express human c-KIT. Briefly: M-07e cellular assay: SCF-mediated cell proliferation (CellTiter Glo). Format: cell-based. The settings on record: 72 h, SCF-mediated proliferation of M-07e cells. On the procedure: M-07e cells (Creative Bioarray, CSC-C0249) which endogenously express human c-KIT were used to evaluate the effect of compounds on stem cell factor (SCF)-mediated cell proliferation. M-07e cells were cultured in growth media (RPMI+10% FBS+1% penicillin/streptomycin+10 ng/mL GM-CSF) at 5E5-1.5E6 cells/mL, replenishing media every 3-4 days. 1.5E4 cells were seeded per well in 384 well tissue culture treated plates in […] assay media (RPMI+10% FBS+1% penicillin/streptomycin) without growth factor stimulation and incubated at 37° C. in a CO2 humidity-controlled incubator. Twenty-four hours later, three-fold serially diluted test compounds in media containing SCF (at the previously determined EC90) were added to the plated M-07e cells and incubated for an additional 72 hours. Cell viability was determined by adding 25 μL CellTiter Glo (Promega) to the cells and the luminescence was measured using a Perkin Elmer Envision plate reader. The EC50 was determined using GraphPad Prism. Percent cell growth was determined after normalizing the curve to the mean RLU high control (no compound control wells) at 100% and the mean RLU low control (no SCF control wells) at 0%.
Background: In ATP-based viability assays light output follows the ATP content of the culture.

T1 sequence (P10721 544-976 limits assumed): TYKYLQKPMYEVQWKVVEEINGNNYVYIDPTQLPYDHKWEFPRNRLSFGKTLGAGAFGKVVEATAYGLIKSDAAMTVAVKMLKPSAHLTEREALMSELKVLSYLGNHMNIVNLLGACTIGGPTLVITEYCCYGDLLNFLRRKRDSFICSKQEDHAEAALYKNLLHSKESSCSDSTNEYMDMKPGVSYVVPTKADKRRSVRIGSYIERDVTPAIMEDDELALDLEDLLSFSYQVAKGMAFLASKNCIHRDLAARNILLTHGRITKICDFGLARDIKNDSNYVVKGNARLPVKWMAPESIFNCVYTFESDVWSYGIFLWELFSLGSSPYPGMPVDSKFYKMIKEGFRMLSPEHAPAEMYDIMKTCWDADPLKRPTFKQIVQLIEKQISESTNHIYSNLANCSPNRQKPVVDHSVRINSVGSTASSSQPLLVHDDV

In the case of `O=C(Nc1cc(-c2ncc(C3CC3)cn2)ccc1C(F)F)c1cnn2ccc(Br)cc12` [Example 392], in assay [1], the pIC50 is less than 6.00. In addition, in assay [2], the pEC50 was less than 6.00.
For the compound `O=C(Nc1cc(-c2ncc(C3CC3)cn2)ccc1C(F)F)c1cnn2ccc(N3CC4(C3)CC(O)(C(F)F)C4)cc12` [Example 393], the pIC50 in assay [1] is 6.00 to 7.00. In assay [2], the pEC50 is greater than 7.00.
Take `Cc1ncc(-c2nnn[nH]2)cc1NC(=O)c1cnn2ccc(N3CC4(C3)CC(O)(C(F)F)C4)cc12` [Example 394]: the pIC50 in assay [1] was less than 6.00. The compound also had a pEC50 in assay [2] of less than 6.00.
Regarding `Cc1ccc(-c2noc(C3C[C@@H]3F)n2)cc1NC(=O)c1ccc(NC(=O)OC(C)(C)C)nc1` (stereo partly drawn) [Example 396], the pIC50 in assay [1] is less than 6.00. For the same compound, the pEC50 in assay [2] is less than 6.00.
For the compound `Cc1ccc(-c2noc([C@H]3C[C@@H]3F)n2)cc1NC(=O)c1ccc(N)nc1` [Example 397], the pIC50 in assay [1] is less than 6.00. For the same compound, the pEC50 in assay [2] is less than 6.00.
`Cc1ccc(-c2noc(C3C[C@@H]3C(F)F)n2)cc1NC(=O)c1ccc(NC(=O)OC(C)(C)C)nc1` (stereo partly drawn) [Example 398]: in assay [1], the pIC50 is less than 6.00. The pEC50 in assay [2] was less than 6.00.
As to `Cc1ncc(-c2noc(C3C[C@@H]3C(F)F)n2)cc1NC(=O)c1ccc(NC(=O)OC(C)(C)C)nc1` (stereo partly drawn) [Example 399], in assay [1], the negative logarithm of the IC50 (pIC50) is less than 6.00. The compound further showed a pEC50 in assay [2] of less than 6.00.
As to `Cc1ccc(-c2noc(C3C[C@@H]3C(F)F)n2)cc1NC(=O)c1ccc(N)nc1` (stereo partly drawn) [Example 400], the pIC50 in assay [1] was less than 6.00. The compound also showed a pEC50 in assay [2] of less than 6.00.
Take `Cc1ncc(-c2noc([C@H]3C[C@@H]3C(F)F)n2)cc1NC(=O)c1ccc(N)nc1` [Example 401]: the pIC50 in assay [1] is less than 6.00. Besides, the pEC50 in assay [2] is 6.00 to 7.00.
As to `Cc1ccc(-c2noc(C3C[C@@H]3F)n2)cc1NC(=O)c1cnc(-c2cnc(N3CC(O)(C(F)(F)F)C3)nc2)o1` (stereo partly drawn) [Example 402], the pIC50 in assay [1] was less than 6.00. In addition, in assay [2], the pEC50 is 6.00 to 7.00.
Taken in the same sequence, the figures for `Cc1ncc(-c2nnn(C3CC3)n2)cc1NC(=O)c1cnn2ccc(N3CC4(C3)CC(O)(C(F)F)C4)cc12` [Example 403] were 6.00 to 7.00 and greater than 7.00.
Taken in the same sequence, the figures for `Cc1ncc(-c2nnc(C3C[C@@H]3F)o2)cc1NC(=O)c1cnn2ccc(N3CC4(C3)CC(O)(C(F)F)C4)cc12` (stereo partly drawn) [Example 404] were 6.00 to 7.00 and 6.00 to 7.00.
In the case of `Cc1ncc(-c2nc([C@H]3C[C@@H]3F)cs2)cc1NC(=O)c1cnn2ccc(N3CC4(C3)CC(O)(C(F)F)C4)cc12` [Example 405], the pIC50 in assay [1] is 6.00 to 7.00. Besides, the pEC50 in assay [2] was greater than 7.00.
The corresponding values for `Cc1ncc(-c2noc(C3C[C@@H]3F)n2)cc1NC(=O)c1cnn2ccc(-c3cn(C[C@H](O)C(C)(C)O)nc3C3CC3)cc12` (stereo partly drawn) [Example 406] are greater than 7.00 and greater than 7.00.
Taken in the same sequence, the figures for `Cc1ncc(-c2nnc(C3C[C@@H]3F)s2)cc1NC(=O)c1cnn2ccc(N3CC4(C3)CC(O)(C(F)F)C4)cc12` (stereo partly drawn) [Example 407] were 6.00 to 7.00 and greater than 7.00.
